According to the NIST ThermoML archive (doi:10.1016/j.jct.2010.02.009):
Where “and” joins values, the source holds several entries; their conditions need not be identical. Identical values can stand only once. ± gives the expanded uncertainty stated by the source.

Tests used:
[1] = heat capacity at constant pressure per volume; xn = mol fraction of the nth substance listed; settings: 101 kPa, Liquid, Large sample (1 g) DSC, x1 = 0.497
[2] = refractive index (other wavelength) (dimensionless); xn = mol fraction of the nth substance listed; settings: 101 kPa, Liquid, Wavelength=632.8 nm, Standard Abbe refractometry

N#Cc1ccccc1 [benzonitrile] + CCCCCCCCC
[1]
Settings | heat capacity
278.51 K | 1795700 ± 36000 J/K/m3
279.06 K | 1803600 ± 36000 J/K/m3
279.55 K | 1808700 ± 36000 J/K/m3
280 K | 1811600 ± 36000 J/K/m3
280.41 K | 1816400 ± 36000 J/K/m3
280.77 K | 1824500 ± 36000 J/K/m3
281.11 K | 1829200 ± 37000 J/K/m3
281.41 K | 1830500 ± 37000 J/K/m3
281.68 K | 1829700 ± 37000 J/K/m3
281.93 K | 1835700 ± 37000 J/K/m3
282.15 K | 1841800 ± 37000 J/K/m3
282.35 K | 1845300 ± 37000 J/K/m3
282.53 K | 1847600 ± 37000 J/K/m3
282.7 K | 1849700 ± 37000 J/K/m3
282.85 K | 1856600 ± 37000 J/K/m3
282.98 K | 1859600 ± 37000 J/K/m3
283.1 K | 1862200 ± 37000 J/K/m3
283.21 K | 1866700 ± 37000 J/K/m3
283.31 K | 1869700 ± 37000 J/K/m3
283.4 K | 1868700 ± 37000 J/K/m3
283.49 K | 1873100 ± 38000 J/K/m3
283.56 K | 1868300 ± 37000 J/K/m3
283.69 K | 1880300 ± 38000 J/K/m3
283.88 K | 1913600 ± 38000 J/K/m3
283.95 K | 1908800 ± 38000 J/K/m3
284.03 K | 1934300 ± 40000 J/K/m3
284.09 K | 1950500 ± 40000 J/K/m3
284.11 K | 1960300 ± 40000 J/K/m3
284.12 K | 1970200 ± 41000 J/K/m3
284.13 K | 1977600 ± 41000 J/K/m3
284.15 K | 1985800 ± 42000 J/K/m3
284.16 K | 1998500 ± 40000 J/K/m3
284.18 K | 2005300 ± 43000 J/K/m3
284.19 K | 2006000 ± 43000 J/K/m3
284.2 K | 2015800 ± 43000 J/K/m3
284.21 K | 2022500 ± 43000 J/K/m3
284.22 K | 2037100 ± 44000 J/K/m3
284.23 K | 2046300 ± 45000 J/K/m3
284.24 K | 2060600 ± 46000 J/K/m3
284.25 K | 2071500 ± 46000 J/K/m3
284.26 K | 2047100 ± 46000 J/K/m3 [middle of 6 runs]
284.27 K | 1937800 ± 46000 J/K/m3 [middle of 5 runs]
284.28 K | 1815400 ± 42000 J/K/m3 and 1840700 ± 42000 J/K/m3
284.29 K | 1794400 ± 42000 J/K/m3
284.31 K | 1776700 ± 44000 J/K/m3
284.33 K | 1765400 ± 47000 J/K/m3
284.36 K | 1750800 ± 44000 J/K/m3
284.42 K | 1731200 ± 35000 J/K/m3
284.5 K | 1715800 ± 34000 J/K/m3
284.61 K | 1703600 ± 34000 J/K/m3
284.69 K | 1698600 ± 34000 J/K/m3
284.79 K | 1693000 ± 34000 J/K/m3
284.9 K | 1688700 ± 34000 J/K/m3
284.97 K | 1686600 ± 34000 J/K/m3
285.12 K | 1680400 ± 34000 J/K/m3
285.21 K | 1677900 ± 34000 J/K/m3
285.31 K | 1676100 ± 34000 J/K/m3
285.43 K | 1674300 ± 34000 J/K/m3
285.55 K | 1671100 ± 33000 J/K/m3
285.68 K | 1668100 ± 33000 J/K/m3
285.83 K | 1666100 ± 33000 J/K/m3
286 K | 1665000 ± 33000 J/K/m3
286.18 K | 1662900 ± 33000 J/K/m3
286.38 K | 1659800 ± 33000 J/K/m3
286.6 K | 1659100 ± 33000 J/K/m3
286.85 K | 1655600 ± 33000 J/K/m3
287.12 K | 1655500 ± 33000 J/K/m3
287.42 K | 1652700 ± 33000 J/K/m3
287.75 K | 1650500 ± 33000 J/K/m3
288.12 K | 1649500 ± 33000 J/K/m3
288.53 K | 1647700 ± 33000 J/K/m3
288.97 K | 1645800 ± 33000 J/K/m3
289.51 K | 1644500 ± 33000 J/K/m3
290.01 K | 1643400 ± 33000 J/K/m3
290.61 K | 1641800 ± 33000 J/K/m3
291.29 K | 1641000 ± 33000 J/K/m3
292.03 K | 1639400 ± 33000 J/K/m3
292.42 K | 1639400 ± 33000 J/K/m3
292.84 K | 1638700 ± 33000 J/K/m3
293.28 K | 1638100 ± 33000 J/K/m3
293.74 K | 1637800 ± 33000 J/K/m3
294.24 K | 1637400 ± 33000 J/K/m3
294.74 K | 1636900 ± 33000 J/K/m3
295.28 K | 1636500 ± 33000 J/K/m3
295.85 K | 1636400 ± 33000 J/K/m3
296.45 K | 1635800 ± 33000 J/K/m3
297.07 K | 1635800 ± 33000 J/K/m3
297.73 K | 1635500 ± 33000 J/K/m3
298.41 K | 1635100 ± 33000 J/K/m3
299.14 K | 1635100 ± 33000 J/K/m3
299.89 K | 1634900 ± 33000 J/K/m3
300.7 K | 1634900 ± 33000 J/K/m3
301.55 K | 1634800 ± 33000 J/K/m3
302.43 K | 1635000 ± 33000 J/K/m3
303.36 K | 1635100 ± 33000 J/K/m3
304.34 K | 1635200 ± 33000 J/K/m3
305.38 K | 1635400 ± 33000 J/K/m3
306.45 K | 1635600 ± 33000 J/K/m3
307.59 K | 1635800 ± 33000 J/K/m3
308.79 K | 1636100 ± 33000 J/K/m3
310.05 K | 1636600 ± 33000 J/K/m3
311.36 K | 1637200 ± 33000 J/K/m3
312.75 K | 1637800 ± 33000 J/K/m3
314.12 K | 1638500 ± 33000 J/K/m3

[2]
Settings | refractive index
278.24 K, x1 = 1 | 1.5324 ± 0.0008
279.25 K, x1 = 1 | 1.5319 ± 0.0008
281.33 K, x1 = 1 | 1.5308 ± 0.0008
282.96 K, x1 = 1 | 1.5301 ± 0.0008
284.3 K, x1 = 1 | 1.5294 ± 0.0008
285.4 K, x1 = 0.0945 | 1.4145 ± 0.0008
285.4 K, x1 = 0.2042 | 1.4234 ± 0.0008
285.4 K, x1 = 0.2947 | 1.4313 ± 0.0008
285.4 K, x1 = 0.3866 | 1.4402 ± 0.0008
285.4 K, x1 = 0.4969 | 1.452 ± 0.0008
285.4 K, x1 = 0.5967 | 1.4642 ± 0.0008
285.4 K, x1 = 0.6844 | 1.4759 ± 0.0008
285.4 K, x1 = 0.7992 | 1.4932 ± 0.0008
285.4 K, x1 = 0.865 | 1.504 ± 0.0008
285.43 K, x1 = 1 | 1.5288 ± 0.0008
